{"source": "paper PMC5429769", "about": "“Rational development of Stafib-2: a selective, nanomolar inhibitor of the transcription factor STAT5b” (Scientific Reports, 2017)", "key": {"STAT1": {"target": "T1, STAT1 (Homo sapiens, UniProt P42224)", "T1 sequence (P42224 1-750)": "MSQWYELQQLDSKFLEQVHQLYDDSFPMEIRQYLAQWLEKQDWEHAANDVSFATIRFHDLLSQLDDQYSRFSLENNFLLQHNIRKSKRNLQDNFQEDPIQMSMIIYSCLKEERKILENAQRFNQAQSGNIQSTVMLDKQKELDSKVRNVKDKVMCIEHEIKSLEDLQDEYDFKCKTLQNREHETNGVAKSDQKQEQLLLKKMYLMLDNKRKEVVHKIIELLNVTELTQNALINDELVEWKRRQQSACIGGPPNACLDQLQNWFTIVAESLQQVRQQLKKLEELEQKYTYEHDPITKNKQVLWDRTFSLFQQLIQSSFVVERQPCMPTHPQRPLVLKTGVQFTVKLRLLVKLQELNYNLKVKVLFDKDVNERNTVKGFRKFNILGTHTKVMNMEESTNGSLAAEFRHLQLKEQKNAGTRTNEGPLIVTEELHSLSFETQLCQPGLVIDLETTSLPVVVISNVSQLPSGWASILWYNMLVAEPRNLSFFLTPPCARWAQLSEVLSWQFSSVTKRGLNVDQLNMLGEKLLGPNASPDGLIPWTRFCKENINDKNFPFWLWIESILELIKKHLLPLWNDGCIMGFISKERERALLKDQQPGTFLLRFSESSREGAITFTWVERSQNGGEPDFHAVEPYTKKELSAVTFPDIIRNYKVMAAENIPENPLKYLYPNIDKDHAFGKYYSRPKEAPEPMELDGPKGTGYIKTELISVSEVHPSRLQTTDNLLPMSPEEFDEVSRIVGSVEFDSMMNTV", "experiment": "Fluorescence polarization assay, STAT1", "format": "binding"}, "STAT6": {"target": "T2, STAT6 (Homo sapiens, UniProt P42226)", "T2 sequence (P42226 1-847)": "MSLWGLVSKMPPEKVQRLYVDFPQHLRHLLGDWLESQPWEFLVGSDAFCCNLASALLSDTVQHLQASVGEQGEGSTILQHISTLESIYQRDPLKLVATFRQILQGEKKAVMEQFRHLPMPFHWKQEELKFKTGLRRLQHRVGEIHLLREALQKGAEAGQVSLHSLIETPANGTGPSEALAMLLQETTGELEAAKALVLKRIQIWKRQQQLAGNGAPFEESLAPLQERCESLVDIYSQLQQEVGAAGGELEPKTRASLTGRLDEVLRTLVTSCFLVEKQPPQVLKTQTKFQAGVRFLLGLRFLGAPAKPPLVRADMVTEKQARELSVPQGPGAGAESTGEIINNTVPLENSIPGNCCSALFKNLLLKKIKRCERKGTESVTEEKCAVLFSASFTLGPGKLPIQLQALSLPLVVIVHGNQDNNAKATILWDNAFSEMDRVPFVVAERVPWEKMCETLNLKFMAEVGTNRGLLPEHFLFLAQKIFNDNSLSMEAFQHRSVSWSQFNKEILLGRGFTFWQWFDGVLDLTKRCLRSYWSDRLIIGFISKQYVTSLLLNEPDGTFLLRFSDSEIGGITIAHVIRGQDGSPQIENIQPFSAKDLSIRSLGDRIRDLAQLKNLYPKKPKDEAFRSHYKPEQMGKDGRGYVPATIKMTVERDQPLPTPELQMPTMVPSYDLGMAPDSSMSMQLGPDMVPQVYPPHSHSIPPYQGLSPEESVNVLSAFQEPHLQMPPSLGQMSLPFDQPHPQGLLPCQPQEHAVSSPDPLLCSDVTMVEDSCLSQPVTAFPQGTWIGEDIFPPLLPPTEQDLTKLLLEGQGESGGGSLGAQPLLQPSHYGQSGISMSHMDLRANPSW", "experiment": "Fluorescence polarization assay, STAT6", "format": "binding"}, "wild-type STAT5b": {"target": "T3, wild-type STAT5b (Homo sapiens, UniProt P51692)", "T3 sequence (P51692 1-787)": "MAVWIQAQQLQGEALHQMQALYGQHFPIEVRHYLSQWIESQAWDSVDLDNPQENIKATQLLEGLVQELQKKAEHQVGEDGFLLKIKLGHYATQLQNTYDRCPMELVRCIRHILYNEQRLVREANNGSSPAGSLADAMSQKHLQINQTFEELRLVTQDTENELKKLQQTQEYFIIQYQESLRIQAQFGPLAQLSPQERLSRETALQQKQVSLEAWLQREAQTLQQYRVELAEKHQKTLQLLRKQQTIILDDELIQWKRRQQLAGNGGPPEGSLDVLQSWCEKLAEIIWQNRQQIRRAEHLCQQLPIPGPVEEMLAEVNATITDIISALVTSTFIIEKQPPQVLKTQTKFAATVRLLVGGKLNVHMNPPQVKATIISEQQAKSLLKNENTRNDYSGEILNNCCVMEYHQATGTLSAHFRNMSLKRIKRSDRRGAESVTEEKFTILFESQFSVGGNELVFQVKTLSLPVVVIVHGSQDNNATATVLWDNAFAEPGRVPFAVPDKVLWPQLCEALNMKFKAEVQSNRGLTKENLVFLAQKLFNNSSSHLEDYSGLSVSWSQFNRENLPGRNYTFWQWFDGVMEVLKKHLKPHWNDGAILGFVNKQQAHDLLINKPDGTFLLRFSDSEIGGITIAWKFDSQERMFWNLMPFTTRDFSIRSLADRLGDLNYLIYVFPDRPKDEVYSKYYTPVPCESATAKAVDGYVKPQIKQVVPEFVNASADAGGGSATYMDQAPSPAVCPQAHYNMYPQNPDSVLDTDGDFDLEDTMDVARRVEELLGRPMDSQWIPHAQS", "experiment": "Isothermal titration calorimetry, wild-type STAT5b", "format": "binding", "details": "ITC, 25 °C, n = 3"}, "STAT5a-GFP": {"system": "STAT5a-GFP", "experiment": "STAT5a Tyr694 phosphorylation in STAT5a-GFP-transfected K562 cells (Western blot)", "format": "cell-based, human", "details": "4 h, result in words"}, "[1]": {"details": "converted from IC50 using the published equation"}}}
{"smiles": "O=C(COc1ccc(C(=O)Nc2ccc(Oc3ccccc3)cc2)cc1)NCc1ccc(OP(=O)(O)O)c(OP(=O)(O)O)c1", "note": "[compound 4, 4-((2-(4-((4-phenoxyphenyl)carbamoyl)phenoxy)acetamido)methyl)-1,2-phenylene bis(dihydrogen phosphate)]", "values": [{"measurement": "Ki", "setting": "STAT1; [1]", "result": "22.8 ± 1", "unit": "µM"}, {"measurement": "IC50", "setting": "STAT1; fluorescence polarization", "result": "46 ± 2", "unit": "µM"}, {"measurement": "Ki", "setting": "STAT6; [1]", "result": "11.7 ± 1.2", "unit": "µM"}, {"measurement": "IC50", "setting": "STAT6; fluorescence polarization", "result": "23.7 ± 2.5", "unit": "µM"}, {"measurement": "ΔH", "setting": "wild-type STAT5b", "result": "-4.1 ± 0.5", "unit": "kcal/mol"}, {"measurement": "−TΔS", "setting": "wild-type STAT5b", "result": "-4.8 ± 0.6", "unit": "kcal/mol"}, {"measurement": "inhibition of STAT5a phosphorylation", "setting": "STAT5a-GFP", "result": "did not show significant activity"}]}
